Laboratory results: US8697725B2, “Tetrahydroquinoline derivatives and their pharmaceutical use” (GlaxoSmithKline LLC, priority 2009, dated 2014)
Structures can show the parent of a compound that is named as a salt.

tested on: TNFα; experiment: LPS Stimulated Whole Blood Measuring TNFα Levels Assay; assay type: cell-based; conditions: 24 h, LPS 200 ng/ml, immunoassay, read-out: pIC50, TNFα levels in LPS stimulated whole blood (converted)
Procedure: LPS Stimulated Whole Blood Measuring TNFα Levels Assay
Activation of monocytic cells by agonists of toll-like receptors such as bacterial lipopolysaccharide (LPS) results in production of key inflammatory mediators including TNFα. Such pathways are widely considered to be central to the pathophysiology of a range of auto-immune and inflammatory disorders.
Compounds to be tested are diluted to give a range of appropriate concentrations and 1 ul of the dilution stocks is added to wells of a 96 plate. Following addition of whole blood (130 ul) the plates are incubated at 37 degrees (5% CO2) for 30 min before the addition of 10 ul of 2.8 ug/ml lipopolysaccharides (LPS), diluted in complete RPMI 1640 (final concentration=200 ng/ml), to give a total volume of 140 ul per well. After further incubation for 24 hours at 37 degrees, 140 ul of PBS are added to each well. The plates are sealed, shaken for 10 minutes and then centrifuged (2500 rpm×10 min). 100 ul of the supernatant are removed and TNFα levels assayed by immunoassay (typically by MesoScale Discovery technology) either immediately or following storage at −20 degrees. Dose response curves for each compound was generated from the data and an IC50 value was calculated.

| IC50 | Compound |
| --- | --- |
| ≤ 6.31 µM | CC(=O)N1c2ccc(-c3cnn(CCN4CCC(N)CC4)c3)cc2[C@@H](NC(=O)OC(C)C)C[C@H]1C (racemic) [Example 39, 1-methylethyl((cis)-1-acetyl-6-{1-[2-(4-amino-1-piperidinyl)ethyl]-1H-pyrazol-4-yl}-2-methyl-1,2,3,4-tetrahydro-4-quinolinyl)carbamate dihydrochloride] |
| ≤ 6.31 µM | CC(=O)N1c2ccc(-c3ccc(N(C)C)nc3)cc2[C@@H](NC(=O)OC(C)C)C[C@H]1C (racemic) [Example 48, 1-methylethyl {(cis)-1-acetyl-6-[6-(dimethylamino)-3-pyridinyl]-2-methyl-1,2,3,4-tetrahydro-4-quinolinyl}carbamate hydrochloride] |
| ≤ 6.31 µM | CC(=O)N1c2ccc(-c3ccc(CN4CCCCC4)cc3)cc2[C@@H](NC(=O)OC2CCCC2)C[C@H]1C (racemic) [Example 36, cyclopentyl {(cis)-1-acetyl-2-methyl-6-[4-(1-piperidinylmethyl)phenyl]-1,2,3,4-tetrahydro-4-quinolinyl}carbamate] |
| ≤ 6.31 µM | CC(=O)N1c2ccc(-c3cnc(N4CCCCC4)nc3)cc2[C@@H](NC(=O)OC(C)C)C[C@H]1C (racemic) [Example 49, 1-methylethyl {(cis)-1-acetyl-2-methyl-6-[2-(1-piperidinyl)-5-pyrimidinyl]-1,2,3,4-tetrahydro-4-quinolinyl}carbamate hydrochloride] |
| ≤ 6.31 µM | CC(=O)N1c2ccc(-c3sc(C)nc3C)cc2[C@@H](NC(=O)OC(C)C)C[C@H]1C (racemic) [Example 32, 1-methylethyl[(cis)-1-acetyl-6-(2,4-dimethyl-1,3-thiazol-5-yl)-2-methyl-1,2,3,4-tetrahydro-4-quinolinyl]carbamate] |
| ≤ 6.31 µM | CC(=O)N1c2ccc(-c3ccc(N4CCNCC4)nn3)cc2[C@@H](NC(=O)OC(C)C)C[C@H]1C (racemic) [Example 45, 1-methylethyl {(cis)-1-acetyl-2-methyl-6-[6-(1-piperazinyl)-3-pyridazinyl]-1,2,3,4-tetrahydro-4-quinolinyl}carbamate hydrochloride] |
| ≤ 6.31 µM | CC(=O)N1c2ccc(-c3ccc(N4CCOCC4)nc3)cc2[C@@H](NC(=O)OC(C)C)C[C@H]1C (racemic) [Example 10, 1-methylethyl {(cis)-1-acetyl-2-methyl-6-[6-(4-morpholinyl)-3-pyridinyl]-1,2,3,4-tetrahydro-4-quinolinyl}carbamate hydrochloride] |
| ≤ 6.31 µM | CC(=O)N1c2ccc(-c3ccc(CN4CCCCC4)cc3)cc2[C@@H](NC(=O)OC(C)(C)C)C[C@H]1C (racemic) [Example 17, 1,1-dimethylethyl {(cis)-1-acetyl-2-methyl-6-[4-(1-piperidinylmethyl)phenyl]-1,2,3,4-tetrahydro-4-quinolinyl}carbamate] |
| ≤ 6.31 µM | CC(=O)N1c2ccc(-c3cnn(CCN4CCCCC4)c3)cc2[C@@H](NC(=O)OC(C)C)C[C@H]1C (racemic) [Example 46, 1-methylethyl((cis)-1-acetyl-2-methyl-6-{1-[2-(1-piperidinyl)ethyl]-1H-pyrazol-4-yl}-1,2,3,4-tetrahydro-4-quinolinyl)carbamate hydrochloride] |
| ≤ 6.31 µM | CC(=O)N1c2ccc(-c3csc(CN4CCCCC4)n3)cc2[C@@H](NC(=O)OC(C)C)C[C@H]1C (racemic) [Example 41, 1-methylethyl {(cis)-1-acetyl-2-methyl-6-[2-(1-piperidinylmethyl)-1,3-thiazol-4-yl]-1,2,3,4-tetrahydro-4-quinolinyl}carbamate] |
| ≤ 6.31 µM | CC(=O)N1c2ccc(-c3cnc(N4CCOCC4)nc3)cc2[C@@H](NC(=O)OC(C)C)C[C@H]1C (racemic) [Example 51, 1-methylethyl {(cis)-1-acetyl-2-methyl-6-[2-(4-morpholinyl)-5-pyrimidinyl]-1,2,3,4-tetrahydro-4-quinolinyl}carbamate hydrochloride] |
| ≤ 6.31 µM | CC(=O)N1c2ccc(Br)cc2[C@@H](NC(=O)OC2CCC2)C[C@H]1C (racemic) [Example 33, cyclobutyl[(cis)-1-acetyl-6-bromo-2-methyl-1,2,3,4-tetrahydro-4-quinolinyl]carbamate] |
| ≤ 6.31 µM | CC(=O)N1c2ccc(Br)cc2[C@H](NC(=O)OC(C)C)C[C@@H]1C [Example 4, 1-methylethyl[(2S,4R)-1-acetyl-6-bromo-2-methyl-1,2,3,4-tetrahydro-4-quinolinyl]carbamate] |
| ≤ 6.31 µM | CC(=O)N1c2ccc(-c3ccc(N4CCCCC4)nc3)cc2[C@@H](NC(=O)OC(C)C)C[C@H]1C (racemic) [Example 11, 1-methylethyl {(cis)-1-acetyl-2-methyl-6-[6-(1-piperidinyl)-3-pyridinyl]-1,2,3,4-tetrahydro-4-quinolinyl}carbamate hydrochloride] |
| ≤ 6.31 µM | CC(=O)N1c2ccc(-c3cnc(N4CCNCC4)nc3)cc2[C@@H](NC(=O)OC(C)C)C[C@H]1C (racemic) [Example 44, 1-methylethyl {(cis)-1-acetyl-2-methyl-6-[2-(1-piperazinyl)-5-pyrimidinyl]-1,2,3,4-tetrahydro-4-quinolinyl}carbamate hydrochloride] |
| ≤ 6.31 µM | CC(=O)N1c2ccc(-c3ccc(CO)cc3)cc2[C@H](NC(=O)OC(C)C)C[C@@H]1C (relative stereo) [Example 15, 1-methylethyl {(cis)-1-acetyl-6-[4-(hydroxymethyl)phenyl]-2-methyl-1,2,3,4-tetrahydro-4-quinolinyl}carbamate] |
| ≤ 6.31 µM | CC(=O)N1c2ccc(-c3ccn[nH]3)cc2[C@@H](NC(=O)OC(C)C)C[C@H]1C (racemic) [Example 31, 1-methylethyl[(cis)-1-acetyl-2-methyl-6-(1H-pyrazol-5-yl)-1,2,3,4-tetrahydro-4-quinolinyl]carbamate] |
| ≤ 6.31 µM | CNCc1cccc(-c2ccc3c(c2)[C@H](NC(=O)OC(C)C)C[C@H](C)N3C(C)=O)c1 [Example 111, 1-Methylethyl((2S,4R)-1-acetyl-2-methyl-6-{3-[(methylamino)methyl]phenyl}-1,2,3,4-tetrahydro-4-quinolinyl)carbamate hydrochloride] |
| ≤ 6.31 µM | CNc1ccc(-c2ccc3c(c2)[C@@H](NC(=O)OC(C)C)C[C@@H](C)N3C(C)=O)cn1 (racemic) [Example 53, 1-methylethyl {(cis)-1-acetyl-2-methyl-6-[6-(methylamino)-3-pyridinyl]-1,2,3,4-tetrahydro-4-quinolinyl}carbamate hydrochloride] |
| ≤ 6.31 µM | CC(=O)N1c2ccc(-c3ccc(CN4CCCC4)cc3)cc2[C@H](NC(=O)OC(C)C)C[C@@H]1C (relative stereo) [Example 30, 1-methylethyl {(cis)-1-acetyl-2-methyl-6-[4-(1-pyrrolidinylmethyl)phenyl]-1,2,3,4-tetrahydro-4-quinolinyl}carbamate hydrochloride] |
| ≤ 6.31 µM | CC(=O)N1c2ccc(-c3ccc(CN4CCCCC4)cc3)cc2[C@H](N(C)C(=O)OC(C)C)C[C@@H]1C (racemic) [Example 42, formic acid-1-methylethyl {(cis)-1-acetyl-2-methyl-6-[4-(1-piperidinylmethyl)phenyl]-1,2,3,4-tetrahydro-4-quinolinyl}methylcarbamate (1:1)] |
| ≤ 6.31 µM | CC(=O)N1c2ccc(-c3cc(CN4CCCCC4)co3)cc2[C@@H](NC(=O)OC(C)C)C[C@H]1C (racemic) [Example 18, 1-methylethyl {(cis)-1-acetyl-2-methyl-6-[4-(1-piperidinylmethyl)-2-furanyl]-1,2,3,4-tetrahydro-4-quinolinyl}carbamate] |
| ≤ 6.31 µM | CC(=O)N1c2ccc(-c3cnc(N)nc3)cc2[C@@H](NC(=O)OC(C)C)C[C@H]1C (racemic) [Example 50, 1-methylethyl[(cis)-1-acetyl-6-(2-amino-5-pyrimidinyl)-2-methyl-1,2,3,4-tetrahydro-4-quinolinyl]carbamate hydrochloride] |
| ≤ 6.31 µM | CC(=O)N1c2ccc(-c3cnc(N4CCNCC4)cn3)cc2[C@@H](NC(=O)OC(C)C)C[C@H]1C (racemic) [Example 43, 1-methylethyl {(cis)-1-acetyl-2-methyl-6-[5-(1-piperazinyl)-2-pyrazinyl]-1,2,3,4-tetrahydro-4-quinolinyl}carbamate hydrochloride] |
| ≤ 6.31 µM | CC(=O)N1c2ccc(-c3ccc(C#N)cc3)cc2[C@H](NC(=O)OC(C)C)C[C@@H]1C [Example 120, 1-Methylethyl[(2S,4R)-1-acetyl-6-(4-cyanophenyl)-2-methyl-1,2,3,4-tetrahydro-4-quinolinyl]carbamate] |
| ≤ 6.31 µM | CC(=O)N1c2ccc(-c3ccc(N4CCN(C(=O)OC(C)(C)C)CC4)nc3)cc2[C@@H](NC(=O)OC(C)C)C[C@H]1C (racemic) [Example 8, 1,1-dimethylethyl 4-{5-[(cis)-1-acetyl-2-methyl-4-({[(1-methylethyl)oxy]carbonyl}amino)-1,2,3,4-tetrahydro-6-quinolinyl]-2-pyridinyl}-1-piperazinecarboxylate] |
